What all share (assay): relative viability (nuclei count vs DMSO), 5 days (fraction); higher = more cells survive
Compound in experiment [1]: CN1C=C(C2=CC=CC=C21)/C=C\3/C4=C(C=CC=N4)NC3=O + N=C(N)NC(=N)NCCc1ccccc1 [Phenformin] (partner 250 µM)
In outline:
(§1)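 Medians of duplicate plates are given as relative viability. That measure is the nuclei count in treated wells divided by the count in vehicle wells. Counts were taken on 4× images of lung cancer cell lines in 1536-well plates, 5 days after pin-tool dosing the day after seeding with one drug alone or a fixed anchor-drug dose plus five library-drug doses (not always all listed) in √10 steps.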

Compound in the experiment “Trametinib + OSI-027”: CC(=O)Nc1cccc(-n2c(=O)n(C3CC3)c(=O)c3c(Nc4ccc(I)cc4F)n(C)c(=O)c(C)c32)c1 [Trametinib] + COc1cccc2cc(-c3nc([C@H]4CC[C@H](C(=O)O)CC4)n4ncnc(N)c34)[nH]c12 [OSI-027] (partner 0.5 µM)
Put shortly: as §1

Compound in the experiment “Trametinib + Linsitinib”: CC(=O)Nc1cccc(-n2c(=O)n(C3CC3)c(=O)c3c(Nc4ccc(I)cc4F)n(C)c(=O)c(C)c32)c1 [Trametinib] + C[C@]1(O)C[C@@H](c2nc(-c3ccc4ccc(-c5ccccc5)nc4c3)c3c(N)nccn32)C1 [Linsitinib] (partner 1 µM)
In outline:
as §1

Compound in the experiment “Trametinib + Dasatinib”: CC(=O)Nc1cccc(-n2c(=O)n(C3CC3)c(=O)c3c(Nc4ccc(I)cc4F)n(C)c(=O)c(C)c32)c1 [Trametinib] + Cc1nc(Nc2ncc(C(=O)Nc3c(C)cccc3Cl)s2)cc(N2CCN(CCO)CC2)n1 [Dasatinib] (partner 0.075 µM)
Put shortly:
as §1

This note sets out measurements from the supplement of paper PMC10307832.

As for UMC-11, the relative viability in experiment [1] (first compound 0.02 µM) is 0.299; in experiment [1] (first compound 0.06325 µM), 0.306; in experiment [1] (first compound 0.2 µM) it was 0.265; in experiment [1] (first compound 0.6325 µM) it was 0.369; in experiment [1] (first compound 2 µM), 0.34; with Trametinib + OSI-027 (first compound 0.0025 µM), 0.478. Besides, the relative viability amounted to 0.403 with Trametinib + OSI-027 (first compound 0.007906 µM); 0.291 with Trametinib + OSI-027 (first compound 0.025 µM); 0.414 in the experiment with Trametinib + OSI-027 (first compound 0.07906 µM); 0.406 with Trametinib + OSI-027 (first compound 0.25 µM); 1.01 in the experiment with Trametinib + Linsitinib (first compound 0.0025 µM); 1.04 with Trametinib + Linsitinib (first compound 0.007906 µM). The relative viability with Trametinib + Linsitinib (first compound 0.025 µM) worked out at 0.929; with Trametinib + Linsitinib (first compound 0.07906 µM) it was 1.07; with Trametinib + Linsitinib (first compound 0.25 µM) it was 0.974; with Trametinib + Dasatinib (first compound 0.0025 µM) it was 0.446; in the experiment with Trametinib + Dasatinib (first compound 0.007906 µM) it was 0.509; with Trametinib + Dasatinib (first compound 0.025 µM), 0.385. For the same cell line, the relative viability in the experiment with Trametinib + Dasatinib (first compound 0.07906 µM) stood at 0.491; with Trametinib + Dasatinib (first compound 0.25 µM), 0.49.
